Experimental data taken from publication PMC9135634 (Nature chemical biology, 2022).

Tests used:
[1] = target: HRAS WT (Homo sapiens, UniProt P01112); assay: RAS BRET target engagement assay, live HEK-293 cells; format: cell-based
[2] = target: HRAS(G12C) (Homo sapiens, UniProt P01112, G12C); assay: as above
[3] = target: KRAS(G12C) (Homo sapiens, UniProt P01116, G12C); assay: as above; format: cell-based; conditions: BRET competition
[4] = target: KRAS WT (Homo sapiens, UniProt P01116); assay: RAS BRET target engagement assay; format: cell-based; conditions: across all RAS variants studied
[5] = target: NanoLuc-ABL1 (Homo sapiens, UniProt P00519); assay: NanoBRET TE Intracellular Kinase Assay, K-4; format: cell-based
NanoLuc-ABL1, sequence (P00519 whole entry): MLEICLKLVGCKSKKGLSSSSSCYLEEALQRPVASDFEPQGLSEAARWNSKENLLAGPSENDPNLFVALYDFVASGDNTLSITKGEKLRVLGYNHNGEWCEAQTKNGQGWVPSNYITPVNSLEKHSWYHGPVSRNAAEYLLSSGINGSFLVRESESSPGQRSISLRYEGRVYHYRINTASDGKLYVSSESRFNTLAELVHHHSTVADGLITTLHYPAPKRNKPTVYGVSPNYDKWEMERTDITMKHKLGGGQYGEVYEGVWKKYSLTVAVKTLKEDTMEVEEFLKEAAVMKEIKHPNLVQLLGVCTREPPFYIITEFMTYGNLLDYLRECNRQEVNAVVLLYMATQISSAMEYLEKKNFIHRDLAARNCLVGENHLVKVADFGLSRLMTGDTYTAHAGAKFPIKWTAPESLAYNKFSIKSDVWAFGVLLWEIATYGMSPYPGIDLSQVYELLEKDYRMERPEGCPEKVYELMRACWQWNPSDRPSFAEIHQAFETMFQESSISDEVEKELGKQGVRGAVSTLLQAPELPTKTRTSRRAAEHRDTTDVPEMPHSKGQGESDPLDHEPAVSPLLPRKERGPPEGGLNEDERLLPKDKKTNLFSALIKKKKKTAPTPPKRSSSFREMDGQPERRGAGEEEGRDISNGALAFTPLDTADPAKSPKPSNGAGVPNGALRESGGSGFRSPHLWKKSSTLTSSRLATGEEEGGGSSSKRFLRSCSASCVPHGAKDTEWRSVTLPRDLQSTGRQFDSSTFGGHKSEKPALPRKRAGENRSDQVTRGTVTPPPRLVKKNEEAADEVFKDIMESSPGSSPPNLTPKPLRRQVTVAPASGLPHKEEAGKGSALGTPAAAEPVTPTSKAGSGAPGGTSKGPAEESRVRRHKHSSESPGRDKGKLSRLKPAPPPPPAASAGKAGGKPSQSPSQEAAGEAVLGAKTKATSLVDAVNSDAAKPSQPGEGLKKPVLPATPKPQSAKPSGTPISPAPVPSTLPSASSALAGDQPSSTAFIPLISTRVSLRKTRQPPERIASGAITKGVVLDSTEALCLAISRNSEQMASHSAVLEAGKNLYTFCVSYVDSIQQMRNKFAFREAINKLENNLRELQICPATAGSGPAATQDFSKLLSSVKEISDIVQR

[6] = target: KRAS(D54R) : CRAF(RBD) (Homo sapiens, UniProt P01116, D54R); assay: NanoBiT-KRAS:CRAF; format: cell-based
[7] = target: NanoBiT-KRAS WT (Homo sapiens, UniProt P01116); assay: NanoBiT-RAS luminescence; format: cell-based; conditions: live cells; titration
[8] = target: KRAS(Y96D) (Homo sapiens, UniProt P01116, Y96D); assay: RAS BRET target engagement assay, live HEK-293 cells; format: cell-based
[9] = system: HEK-293 cells; format: cell-based; conditions: RAS-independent cell line
[10] = system: A375 cells; assay: Anti-proliferative activity, CellTiter-Glo 2.0; format: cell-based; conditions: BRAF V600E, RAS-independent

For `C=CC(=O)N1CCN(c2nc(=O)n(-c3c(C)ccnc3C(C)C)c3nc(-c4c(O)cccc4F)c(F)cc23)[C@@H](C)C1` [AMG510, sotorasib], the “BRET engagement” value [1] was “No engagement” and the “BRET engagement” value [2] was “showed vulnerability”.

With `C=CC(=O)N1CCN(c2ncnc3c(F)c(-c4c(O)cccc4F)c(Cl)cc23)CC1` [ARS-1620] the hill coefficient [3] was 1.1.

In the case of `Cn1cnc(Cn2ccc3ccc(CNCc4[nH]c5ccccc5c4[C@H]4NC(=O)c5ccc(O)cc54)cc32)c1` [BI-2852], the “Hill coefficients, mean” value [4] is reported as 1.9 ± 0.7, the “Hill coefficients, range” value [4] is reported as 1.3−3.3 and the “effect on BRET or luminescence in irrelevant target engagement assay” value [5] is reported as “had no effect on the BRET or luminescence”. The “inhibition of CRAF-RBD interaction with KRAS(D54R) dimers” value [6] was “unable to inhibit the interaction” and the “effect on RAS dimerization NanoBiT signal” value [7] was “did not impact”.

For `CCC(=O)N1CCN(c2nc(OC[C@@H]3CCCN3C)nc3c2CCN(c2cccc4cccc(Cl)c24)C3)C[C@@H]1CC#N` [Compound 10], the “BRET engagement” value [8] was “not observed”.

With `C=C(F)C(=O)N1CCN(c2nc(OC[C@@H]3CCCN3C)nc3c2CCN(c2cccc4cccc(Cl)c24)C3)C[C@@H]1CC#N` [MRTX849] the “BRET engagement” value [1] was “No engagement”, the “anti-proliferative / cytotoxic effect” value [9] was “the same effect” and the “anti-proliferative effect” value [10] was “the same effect”. The “BRET engagement” value [2] was “showed vulnerability” and the “affinity for HRAS(G12C) weaker than that observed for KRAS(G12C)” value [2] was 3 orders of magnitude.
